Data as given in publication PMC10368966, “Safety and efficacy of AK0529 in respiratory syncytial virus‐infected infant patients: A phase 2 proof‐of‐concept trial” (Influenza and Other Respiratory Viruses, 2023).
Like-named read-outs stand apart in the source and are kept apart here.

What was measured:
RSV infection = experiment: Phase 2 study: Wang Respiratory Score; format: in vivo, human (infants); settings: for Hodges–Lehmann estimation of between-group difference in Wang Respiratory Score: Part 2, 2 mg/kg vs placebo, 96 h
[1] = Phase 2 study: population pharmacokinetics of plasma concentrations; format: in vivo, human (infants); settings: for Tmax / AUC(0-t) / Cmax / AUC(0-inf) / half-life: human, plasma; for Cmax: read-out: Cmax mean (CV %); for AUC(0-inf): read-out: AUC0–∞ mean (CV %); for half-life: read-out: t½ mean (CV %) (converted)
Procedure: Individual plasma concentrations of the active drug were measured, and PK were determined using nonlinear mixed‐effect models. In all cases, when new data were available, the updated model was used for evaluation under the assumption of an allometric coefficient of 0.75 and incorporation of CYP maturation. Using a Population PK (Pop‐PK) analysis approach, AUC0–∞, clearance (CL/F), volume of distribution (Vc/F), and other PK parameters were estimated for AK0529. Maximum plasma concentration (Cmax) was computed from the predicted profiles.
Clinical safety and tolerability were assessed on the safety population, comprising all subjects who received ≥1 dose of study drug. Clinical variables were evaluated in the full analysis population, which included all subjects who received a dose of study drug and for whom ≥1 post‐treatment assessment was available. Pharmacokinetic analysis was performed on those subjects in the safety population for whom both pre‐ and post‐dose samples were available.

RSV = system: RSV; design: method as in PMID 31194544; settings: orally administered ref 9; cited from earlier work
[2] = system: recombinant RSV T400I variant; experiment: Resistance test with recombinant RSV T400I variant
[3] = Part 1, single oral dose 0.5 mg/kg
[4] = Part 1, single oral dose 1.0 mg/kg
[5] = Part 1, single oral dose 2.0 mg/kg
[6] = Part 1, single oral dose 4.0 mg/kg

Compound: Cc1ccc2nc(N3CCS(=O)(=O)c4ccccc4C3)nc(NCC3(N)COC3)c2c1 [AK0529, ziresovir]
- median Wang Respiratory Score change (RSV infection; Part 1, single dose, baseline to 24 h, one-sided p = 0.004 combined AK0529 groups vs placebo): decreased from baseline to 24 h in a dose‐related manner
- median reduction in Wang Respiratory Score from baseline (RSV infection; Part 2, 2 mg/kg bid, baseline to 96 h, 95% CI −4.51, −2.03, placebo −2.0, one-sided p = 0.031): −4.0
- Hodges–Lehmann estimation of between-group difference in Wang Respiratory Score (RSV infection; full analysis population, 95% CI −2, 1): −1
- Hodges–Lehmann estimation of between-group difference in Wang Respiratory Score (RSV infection; two cases of bacterial pneumonia excluded, 95% CI −2, 0, p = 0.009): −1
- patients achieving disease remission (Wang Respiratory Score ≤1) (RSV infection; post-hoc, 2 mg/kg bid, by Day 5, 8/11 patients, placebo 31%, p 0.0412): 73%
- elimination half-life in subjects aged <6 months ([1]; Part 1, compared with older subjects): slightly longer
- time to reach Cmax ([1]; Part 1, single doses except 4 mg/kg): around 4 h
- change in AUC with dose ([1]; Part 1, single doses up to 4 mg/kg, no apparent plateau): dose‐dependent increase
- targeted drug exposure ([1]; Part 2, 2 mg/kg bid): reached
- dose proportionality of mean Cmax and AUCτ ([1]; Part 2, across the dose range tested): approximate dose proportionality
- increase in AUCτ from Days 1 to 5 (accumulation) ([1]; Part 2, bid dosing): approximately 1.5 fold
- median trough ([1]; Part 2, bid dosing): 12 h
- Tmax ([1]; oral, Part 2, Days 1 and 5, read-out: median tmax): 2.5 to 3.8 h
- AUC(0-t) ([1]; oral, Part 1, single doses up to 4 mg/kg, read-out: AUC0–24): ≤ 7780 ng·h/mL
- Tmax ([1]; po, 0.5 mg/kg, Part 1, single oral dose 0.5 mg/kg, read-out: tmax median (range)): 4.5 h
- Tmax ([1]; po, 1 mg/kg, Part 1, single oral dose 1.0 mg/kg, read-out: tmax median (range)): 4.3 h
- Tmax ([1]; po, 2 mg/kg, Part 1, single oral dose 2.0 mg/kg, read-out: tmax median (range)): 3.3 h
- Tmax ([1]; po, 4 mg/kg, Part 1, single oral dose 4.0 mg/kg, read-out: tmax median (range)): ~2 h
- Cmax ([1]; Part 1, single oral dose 0.5 mg/kg, N 4, all younger than 6 months): 158 ng/mL
- AUC(0-t) ([1]; Part 1, single oral dose 0.5 mg/kg, read-out: AUC0–24 mean (CV %)): 1770 ng·h/mL
- AUC(0-inf) [1, 3]: 2060 ng·h/mL
- half-life [1, 3]: 7.7 h
- Cmax ([1]; Part 1, single oral dose 1.0 mg/kg, N 6): 302 ng/mL
- AUC(0-t) ([1]; Part 1, single oral dose 1.0 mg/kg, read-out: AUC0–24 mean (CV %)): 2890 ng·h/mL
- AUC(0-inf) [1, 4]: 3150 ng·h/mL
- half-life [1, 4]: 5.7 h
- Cmax ([1]; Part 1, single oral dose 2.0 mg/kg, N 4): 375 ng/mL
- AUC(0-t) ([1]; Part 1, single oral dose 2.0 mg/kg, read-out: AUC0–24 mean (CV %)): 3790 ng·h/mL
- AUC(0-inf) [1, 5]: 4200 ng·h/mL
- half-life [1, 5]: 6.2 h
- Cmax ([1]; Part 1, single oral dose 4.0 mg/kg, N 3 incl. one subject of Study AK0529-1002): 888 ng/mL
- AUC(0-t) ([1]; Part 1, single oral dose 4.0 mg/kg, read-out: AUC0–24 mean (CV %)): 7780 ng·h/mL
- AUC(0-inf) [1, 6]: 8280 ng·h/mL
- half-life [1, 6]: 6 h
- antiviral efficacy (RSV): demonstrated antiviral efficacy
- susceptibility of recombinant RSV T400I variant [2]: resistance
